How the values were obtained:
[1] = system: lepr^db/db mice; experiment: Postprandial blood glucose in treated lepr db/db mice; assay type: in vivo, mouse; details: cytopiloyne 2.5 mg/kg daily, FIG. 5C
Description: Their postprandial blood glucose was determined using a glucometer. […] Their postprandial blood glucose was determined using a glucometer.
To deplete pancreatic β cells in mice. […] Postprandial blood glucose was measured. […] Postprandial blood glucose was measured.

[2] = molecular target: T1, GST-Pdia4 (Homo sapiens, UniProt P13667); experiment: Bovine pancreatic trypsin inhibitor (BPTI)-based assay of disulfide isomerase activity; assay type: biochemical; details: reduced BPTI as substrate, CP at different doses, FIG. 5B
T1 construct: made in house; host or cells: E. coli
T1 sequence (P13667 21-645): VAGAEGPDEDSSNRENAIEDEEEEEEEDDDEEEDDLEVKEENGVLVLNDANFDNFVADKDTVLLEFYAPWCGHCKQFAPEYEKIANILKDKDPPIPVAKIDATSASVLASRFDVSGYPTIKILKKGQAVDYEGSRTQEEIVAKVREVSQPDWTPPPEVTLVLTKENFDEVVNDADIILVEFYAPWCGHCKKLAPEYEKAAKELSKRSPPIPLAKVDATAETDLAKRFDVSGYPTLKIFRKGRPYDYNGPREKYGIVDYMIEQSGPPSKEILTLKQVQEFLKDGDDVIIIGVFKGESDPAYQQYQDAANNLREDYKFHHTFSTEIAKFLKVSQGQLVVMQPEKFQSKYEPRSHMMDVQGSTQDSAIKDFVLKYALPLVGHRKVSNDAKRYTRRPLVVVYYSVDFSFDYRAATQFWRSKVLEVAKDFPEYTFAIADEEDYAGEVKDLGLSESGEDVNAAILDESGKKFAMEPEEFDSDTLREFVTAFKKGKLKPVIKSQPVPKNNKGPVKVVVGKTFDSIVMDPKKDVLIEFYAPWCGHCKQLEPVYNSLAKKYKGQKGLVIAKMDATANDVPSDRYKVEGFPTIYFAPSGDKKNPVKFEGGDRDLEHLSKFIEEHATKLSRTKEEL
Description: Their postprandial blood glucose was determined using a glucometer. […] Their postprandial blood glucose was determined using a glucometer. Glutathione agarose bead-bound GST-Pdia4 (0.15 μg) were purified from E. coli bacteria.

[3] = system: pdia4^−/−lepr^db/db mice; experiment: Postprandial blood glucose in treated pdia4-/- lepr db/db mice; details: metformin 60 mg/kg BW, rosiglitazone 20 mg/kg BW or both, daily, FIG. 5A
Description: (A) lepr^db/db and pdia4^−/−lepr^db/db mice received a daily dose of PBS vehicle (Veh), metformin (MET, 60 mg/kg BW) and metformin (MET, 60 mg/kg BW)/rosiglitazone (ROS, 20 mg/kg BW). Their postprandial blood glucose was determined using a glucometer. […] (C) lepr^db/db mice received a daily dose of PBS vehicle (Veh), cytopiloyne (CP, 2.5 mg/kg), cytopiloyne (CP, 2.5 mg/kg)/metformin (MET, 60 mg/kg BW) and cytopiloyne (CP, 2.5 mg/kg)/metformin (MET, 60 mg/kg BW)/rosiglitazone (Ros, 20 mg/kg BW). Their postprandial blood glucose was determined using a glucometer.
To treat mice, PBS or a combination of cytopiloyne (2.5 mg/kg/day), metformin (60 mg/kg/day), and metformin (60 mg/kg/day) plus rosiglitazone (20 mg/kg/day) were fed for the indicated time. Postprandial blood glucose was measured. To treat pdia4^−/−lepr^db/db mice, PBS, metformin (60 mg/kg/day), and metformin (60 mg/kg/day) plus rosiglitazone (20 mg/kg/day) were fed for the indicated time. Postprandial blood glucose was measured.
After the overnight fasting, the mice had free access to food for 2 hr. fasting or postprandial blood glucose levels of the mice were measured using an Elite glucometer (Bayer).

| Structure (SMILES) | postprandial blood glucose [1] | enzymatic (disulfide isomerase) activity of Pdia4 [2] | enzymatic (disulfide isomerase) activity of Pdia4 ([2]; listed as Cytopiloyne) | hyperglycemia (postprandial blood glucose) [3] |
| --- | --- | --- | --- | --- |
| CC#CC#CC#CC#CCCC(CO)O[C@@H]1O[C@H](CO)[C@@H](O)[C@H](O)[C@H]1O (stereo partly shown) [cytopiloyne] | lower postprandial blood glucose | inhibited Pdia4 activity | suppress the enzymatic activity of Pdia4 | – |
| CN(C)C(=N)N=C(N)N [metformin] | – | – | – | normalize hyperglycemia |
